According to PMC11345841, “Exploring 2-Sulfonylpyrimidine Warheads as Acrylamide Surrogates for Targeted Covalent Inhibition: A BTK Story” (Journal of Medicinal Chemistry, 2024):
Where two headings read alike, the source gives them in different places.

What was measured:
Assay in all cases: KINOMEscan ScanTK
Assay type in all cases: binding
FER = target: T1, FER (Homo sapiens, UniProt P16591)
T1 construct: purchased Eurofins DiscoverX KINOMEscan (scanTK)

FES = target: T2, FES (Homo sapiens, UniProt P07332)
T2 construct: purchased Eurofins DiscoverX KINOMEscan (scanTK)

FGFR3 = target: T3, FGFR3 (Homo sapiens, UniProt P22607)
T3 construct: purchased Eurofins DiscoverX KINOMEscan (scanTK)
T3 sequence (P22607 23-806): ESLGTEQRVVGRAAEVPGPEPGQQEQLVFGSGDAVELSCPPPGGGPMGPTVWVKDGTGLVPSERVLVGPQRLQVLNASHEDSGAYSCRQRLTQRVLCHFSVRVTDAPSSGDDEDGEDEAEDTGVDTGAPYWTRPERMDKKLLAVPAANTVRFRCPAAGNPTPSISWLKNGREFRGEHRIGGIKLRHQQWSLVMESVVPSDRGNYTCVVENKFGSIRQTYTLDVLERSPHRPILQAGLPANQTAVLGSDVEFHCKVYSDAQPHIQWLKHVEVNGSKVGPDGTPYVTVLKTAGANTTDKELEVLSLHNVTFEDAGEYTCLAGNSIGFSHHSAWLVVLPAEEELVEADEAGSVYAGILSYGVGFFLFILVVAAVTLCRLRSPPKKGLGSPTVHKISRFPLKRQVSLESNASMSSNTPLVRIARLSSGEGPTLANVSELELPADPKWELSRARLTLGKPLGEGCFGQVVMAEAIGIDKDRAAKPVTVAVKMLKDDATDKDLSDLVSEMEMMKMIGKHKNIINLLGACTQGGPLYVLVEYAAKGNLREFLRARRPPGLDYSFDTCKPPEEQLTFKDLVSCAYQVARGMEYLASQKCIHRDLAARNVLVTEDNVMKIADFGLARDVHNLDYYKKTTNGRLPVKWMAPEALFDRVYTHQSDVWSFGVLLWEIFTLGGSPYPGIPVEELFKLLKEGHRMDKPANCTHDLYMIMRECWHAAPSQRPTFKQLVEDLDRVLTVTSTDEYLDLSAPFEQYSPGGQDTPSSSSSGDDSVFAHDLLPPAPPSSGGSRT

FGR = target: T4, FGR (Homo sapiens, UniProt P09769)
T4 construct: purchased Eurofins DiscoverX KINOMEscan (scanTK)
T4 sequence (P09769 whole entry): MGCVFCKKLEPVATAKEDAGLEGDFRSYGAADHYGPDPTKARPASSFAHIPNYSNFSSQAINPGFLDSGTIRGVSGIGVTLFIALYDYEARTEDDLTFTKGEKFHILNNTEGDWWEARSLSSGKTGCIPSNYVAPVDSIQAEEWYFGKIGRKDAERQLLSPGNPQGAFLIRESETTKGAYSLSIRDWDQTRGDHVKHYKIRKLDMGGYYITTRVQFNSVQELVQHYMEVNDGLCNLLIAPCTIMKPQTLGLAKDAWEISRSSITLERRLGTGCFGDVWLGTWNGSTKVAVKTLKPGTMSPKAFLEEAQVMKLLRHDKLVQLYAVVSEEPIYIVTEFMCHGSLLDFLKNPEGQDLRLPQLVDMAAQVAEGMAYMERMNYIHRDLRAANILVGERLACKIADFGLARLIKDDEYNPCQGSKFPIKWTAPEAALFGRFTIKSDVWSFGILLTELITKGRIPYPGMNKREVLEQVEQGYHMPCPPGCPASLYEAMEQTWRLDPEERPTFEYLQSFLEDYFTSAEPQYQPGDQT

FLT3(ITD,D835V) = settings: for %Control / % difference (compound - Ib %Control): @1000nM
[1] = target: T5, JAK2(JH1domain-catalytic) (Homo sapiens, UniProt O60674)
T5 construct: JAK2(JH1domain-catalytic); purchased Eurofins DiscoverX KINOMEscan (scanTK)
T5 sequence (O60674 849-1132 limits assumed): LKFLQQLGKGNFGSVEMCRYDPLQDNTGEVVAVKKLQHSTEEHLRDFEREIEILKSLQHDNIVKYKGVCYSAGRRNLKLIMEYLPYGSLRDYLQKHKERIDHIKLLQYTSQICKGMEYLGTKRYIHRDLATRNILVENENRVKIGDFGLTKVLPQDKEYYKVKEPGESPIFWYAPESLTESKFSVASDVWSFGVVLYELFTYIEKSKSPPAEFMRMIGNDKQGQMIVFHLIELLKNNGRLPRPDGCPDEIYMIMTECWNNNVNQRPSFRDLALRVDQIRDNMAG

[2] = target: T6, JAK3(JH1domain-catalytic) (Homo sapiens, UniProt P52333); settings: for remaining binding at 1 µM / difference in %Control from compound Ib at 1 µM: JAK3(JH1domain-catalytic); for inhibition at 1 µM: ScanTK
T6 construct: JAK3(JH1domain-catalytic); purchased Eurofins DiscoverX KINOMEscan (scanTK)
T6 sequence (P52333 822-1124 limits assumed): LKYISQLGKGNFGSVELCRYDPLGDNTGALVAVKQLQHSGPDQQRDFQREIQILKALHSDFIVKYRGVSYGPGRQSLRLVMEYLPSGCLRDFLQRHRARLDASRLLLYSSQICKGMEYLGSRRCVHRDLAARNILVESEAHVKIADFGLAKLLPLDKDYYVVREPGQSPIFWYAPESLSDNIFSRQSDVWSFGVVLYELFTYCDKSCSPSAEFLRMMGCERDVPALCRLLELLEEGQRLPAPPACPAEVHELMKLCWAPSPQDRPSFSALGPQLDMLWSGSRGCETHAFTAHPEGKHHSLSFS

LYN = target: T7, LYN (Homo sapiens, UniProt P07948)
T7 construct: purchased Eurofins DiscoverX KINOMEscan (scanTK)

RET = target: T8, RET (Homo sapiens, UniProt P07949)
T8 construct: purchased Eurofins DiscoverX KINOMEscan (scanTK)
T8 sequence (P07949 29-1114): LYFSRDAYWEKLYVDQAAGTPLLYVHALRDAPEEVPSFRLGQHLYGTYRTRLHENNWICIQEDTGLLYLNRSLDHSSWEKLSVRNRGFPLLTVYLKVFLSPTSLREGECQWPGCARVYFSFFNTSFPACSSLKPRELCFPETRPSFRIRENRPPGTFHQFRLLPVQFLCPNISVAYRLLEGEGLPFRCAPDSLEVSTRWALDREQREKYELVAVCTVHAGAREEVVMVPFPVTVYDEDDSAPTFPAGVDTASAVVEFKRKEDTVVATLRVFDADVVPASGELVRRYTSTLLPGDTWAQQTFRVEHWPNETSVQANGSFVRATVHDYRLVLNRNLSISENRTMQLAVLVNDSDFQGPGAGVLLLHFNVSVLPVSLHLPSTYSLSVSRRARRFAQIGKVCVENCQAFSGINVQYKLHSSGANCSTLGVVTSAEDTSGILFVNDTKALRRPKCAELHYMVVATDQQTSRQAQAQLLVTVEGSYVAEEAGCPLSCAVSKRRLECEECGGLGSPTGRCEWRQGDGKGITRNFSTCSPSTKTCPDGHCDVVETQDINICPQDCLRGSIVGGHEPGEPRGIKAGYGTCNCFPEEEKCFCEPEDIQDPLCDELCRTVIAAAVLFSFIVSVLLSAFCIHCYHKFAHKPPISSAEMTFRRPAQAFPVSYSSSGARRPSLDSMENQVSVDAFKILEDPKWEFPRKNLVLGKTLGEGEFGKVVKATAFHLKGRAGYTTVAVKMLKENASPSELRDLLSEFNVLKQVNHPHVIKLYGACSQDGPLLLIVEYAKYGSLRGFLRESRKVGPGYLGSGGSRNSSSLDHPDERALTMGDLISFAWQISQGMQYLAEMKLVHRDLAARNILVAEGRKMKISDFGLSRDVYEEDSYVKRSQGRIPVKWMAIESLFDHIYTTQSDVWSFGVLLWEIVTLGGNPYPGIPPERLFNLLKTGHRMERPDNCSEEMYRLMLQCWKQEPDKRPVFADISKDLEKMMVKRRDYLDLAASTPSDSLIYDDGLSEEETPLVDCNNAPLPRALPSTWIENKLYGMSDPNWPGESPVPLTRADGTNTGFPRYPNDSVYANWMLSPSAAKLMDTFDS

TIE1 = target: T9, TIE1 (Homo sapiens, UniProt P35590)
T9 construct: purchased Eurofins DiscoverX KINOMEscan (scanTK)
T9 sequence (P35590 22-1138): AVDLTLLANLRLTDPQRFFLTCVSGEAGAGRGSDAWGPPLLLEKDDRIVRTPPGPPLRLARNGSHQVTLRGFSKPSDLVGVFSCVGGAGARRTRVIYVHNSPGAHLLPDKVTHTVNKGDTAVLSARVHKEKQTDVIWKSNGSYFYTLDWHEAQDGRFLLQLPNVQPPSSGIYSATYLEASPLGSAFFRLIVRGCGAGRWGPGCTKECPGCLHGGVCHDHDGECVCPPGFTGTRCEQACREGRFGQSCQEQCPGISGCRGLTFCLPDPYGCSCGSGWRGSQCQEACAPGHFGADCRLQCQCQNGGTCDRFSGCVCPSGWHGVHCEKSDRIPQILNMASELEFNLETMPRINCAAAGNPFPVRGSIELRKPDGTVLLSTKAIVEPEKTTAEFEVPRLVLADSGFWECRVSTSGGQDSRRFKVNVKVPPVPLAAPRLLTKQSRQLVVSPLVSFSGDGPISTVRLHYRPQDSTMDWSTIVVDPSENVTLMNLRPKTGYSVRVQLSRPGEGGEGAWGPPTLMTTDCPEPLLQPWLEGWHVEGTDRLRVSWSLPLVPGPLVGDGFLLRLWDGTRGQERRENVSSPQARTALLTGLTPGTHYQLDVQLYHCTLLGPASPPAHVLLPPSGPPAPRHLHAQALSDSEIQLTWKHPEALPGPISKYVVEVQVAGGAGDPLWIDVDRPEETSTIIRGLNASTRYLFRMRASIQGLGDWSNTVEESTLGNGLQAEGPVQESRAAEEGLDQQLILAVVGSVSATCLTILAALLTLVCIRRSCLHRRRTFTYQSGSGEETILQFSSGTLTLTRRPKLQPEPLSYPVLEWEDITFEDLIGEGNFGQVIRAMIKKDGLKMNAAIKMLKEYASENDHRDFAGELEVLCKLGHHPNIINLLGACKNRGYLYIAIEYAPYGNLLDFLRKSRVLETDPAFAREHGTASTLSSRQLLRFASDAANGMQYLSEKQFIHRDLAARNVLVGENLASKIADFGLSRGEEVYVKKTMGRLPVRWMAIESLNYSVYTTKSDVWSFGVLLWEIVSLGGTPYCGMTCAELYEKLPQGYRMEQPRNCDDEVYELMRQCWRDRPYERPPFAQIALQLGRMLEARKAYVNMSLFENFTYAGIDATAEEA

EGFR(S752-I759del) = target: T10, EGFR(S752-I759del) (Homo sapiens, UniProt P00533, DEL752-759)
T10 construct: purchased Eurofins DiscoverX KINOMEscan (scanTK)

FLT3-autoinhibited = target: T11, FLT3-autoinhibited (Homo sapiens, UniProt P36888)
T11 construct: purchased Eurofins DiscoverX KINOMEscan (scanTK)
T11 sequence (P36888 27-993): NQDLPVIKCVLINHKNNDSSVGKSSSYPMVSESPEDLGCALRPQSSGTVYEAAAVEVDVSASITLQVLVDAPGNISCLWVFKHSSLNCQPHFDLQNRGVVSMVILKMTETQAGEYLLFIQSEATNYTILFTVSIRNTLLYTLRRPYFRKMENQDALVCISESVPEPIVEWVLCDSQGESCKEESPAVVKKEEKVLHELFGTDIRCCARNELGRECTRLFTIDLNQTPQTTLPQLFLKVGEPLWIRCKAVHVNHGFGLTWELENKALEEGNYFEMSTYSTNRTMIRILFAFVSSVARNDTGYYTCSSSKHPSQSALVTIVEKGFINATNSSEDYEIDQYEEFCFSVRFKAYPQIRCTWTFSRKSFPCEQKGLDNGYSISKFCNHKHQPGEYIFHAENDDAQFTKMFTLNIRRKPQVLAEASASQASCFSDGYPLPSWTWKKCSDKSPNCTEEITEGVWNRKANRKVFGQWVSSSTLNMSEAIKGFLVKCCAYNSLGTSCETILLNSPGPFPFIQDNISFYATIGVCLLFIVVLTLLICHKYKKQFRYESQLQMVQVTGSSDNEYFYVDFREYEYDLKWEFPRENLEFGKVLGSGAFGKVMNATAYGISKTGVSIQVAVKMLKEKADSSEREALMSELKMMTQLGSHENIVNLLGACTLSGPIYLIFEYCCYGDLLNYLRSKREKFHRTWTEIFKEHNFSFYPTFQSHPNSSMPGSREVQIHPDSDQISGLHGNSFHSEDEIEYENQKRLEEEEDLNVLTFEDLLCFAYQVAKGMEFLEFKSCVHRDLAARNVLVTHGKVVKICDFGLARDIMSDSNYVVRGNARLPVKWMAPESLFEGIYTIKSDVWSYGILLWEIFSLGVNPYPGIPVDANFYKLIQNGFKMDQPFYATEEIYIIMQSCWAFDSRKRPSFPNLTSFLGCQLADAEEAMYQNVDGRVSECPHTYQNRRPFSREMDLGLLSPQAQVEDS

T1 sequence (P16591 whole entry): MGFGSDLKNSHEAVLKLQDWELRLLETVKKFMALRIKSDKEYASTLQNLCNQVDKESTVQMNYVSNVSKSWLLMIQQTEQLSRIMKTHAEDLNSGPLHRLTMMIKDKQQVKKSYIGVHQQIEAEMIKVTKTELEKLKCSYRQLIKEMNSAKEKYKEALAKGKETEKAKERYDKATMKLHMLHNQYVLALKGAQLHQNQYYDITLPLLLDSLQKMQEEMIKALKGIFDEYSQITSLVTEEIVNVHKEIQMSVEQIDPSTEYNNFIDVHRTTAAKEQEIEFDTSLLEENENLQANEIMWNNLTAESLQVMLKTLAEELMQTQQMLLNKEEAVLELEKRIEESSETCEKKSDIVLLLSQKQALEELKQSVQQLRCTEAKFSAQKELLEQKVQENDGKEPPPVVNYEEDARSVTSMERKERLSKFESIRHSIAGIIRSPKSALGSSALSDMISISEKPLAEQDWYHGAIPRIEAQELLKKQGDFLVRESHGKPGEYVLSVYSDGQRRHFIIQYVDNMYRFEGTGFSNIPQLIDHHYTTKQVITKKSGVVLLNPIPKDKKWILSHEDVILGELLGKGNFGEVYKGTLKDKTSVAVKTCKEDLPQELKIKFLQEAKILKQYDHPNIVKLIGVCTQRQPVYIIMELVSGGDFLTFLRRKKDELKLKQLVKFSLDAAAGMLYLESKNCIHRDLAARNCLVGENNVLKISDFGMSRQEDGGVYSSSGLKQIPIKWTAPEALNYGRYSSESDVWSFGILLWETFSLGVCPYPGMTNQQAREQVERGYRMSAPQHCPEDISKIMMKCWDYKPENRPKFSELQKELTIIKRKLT

Row | SMILES | remaining binding at 1 µM (FER; @1000nM, read-out: %Control) [%] | remaining binding at 1 µM (FER; read-out: %Control @1000nM) [%] | remaining binding at 1 µM (FES; @1000nM, read-out: %Control) [%] | remaining binding at 1 µM (FES; read-out: %Control @1000nM) [%] | remaining binding at 1 µM (FGFR3; @1000nM, read-out: %Control) [%] | remaining binding at 1 µM (FGFR3; read-out: %Control @1000nM) [%] | %Control @1000nM (FLT3(ITD,D835V)) [%] | %Control (FLT3(ITD,D835V)) [%] | remaining binding at 1 µM ([1]; @1000nM, read-out: %Control) [%] | remaining binding at 1 µM ([1]; read-out: %Control @1000nM) [%] | remaining binding at 1 µM ([2]; @1000nM, read-out: %Control) [%] | remaining binding at 1 µM ([2]; read-out: %Control @1000nM) [%] | inhibition at 1 µM [2] [%] | remaining binding at 1 µM (LYN; @1000nM, read-out: %Control) [%] | remaining binding at 1 µM (LYN; read-out: %Control @1000nM) [%] | remaining binding at 1 µM (RET; @1000nM, read-out: %Control) [%] | remaining binding at 1 µM (RET; read-out: %Control @1000nM) [%] | remaining binding at 1 µM (TIE1; @1000nM, read-out: %Control) [%] | remaining binding at 1 µM (TIE1; read-out: %Control @1000nM) [%] | difference in %Control versus compound Ib at 1 µM (EGFR(S752-I759del); @1000nM) [%] | also measured
1 | C=CC(=O)N1CCC[C@@H](n2nc(-c3ccc(Oc4ccccc4)cc3)c3c(N)ncnc32)C1 [Compound 1g, Ibrutinib, reference compound] | 100 | 100 | 100 | 100 | 48 | 48 | 77 | 77 | 100 | 100 | 5.5 | 5.5 | 95 | 16 | 16 | 12 | 12 | 57 | 57 |  | %Control @1000nM (FGR): 5.3%; %Control (FGR; @1000nM): 5.3%
2 | COC(=O)c1cnc(S(C)(=O)=O)nc1N1CCCC(n2nc(-c3ccc(Oc4ccccc4)cc3)c3c(N)ncnc32)C1 (centres unmarked) [Compound 8b, Methyl 4-(3-(4-Amino-3-(4-phenoxyphenyl)-1H-pyrazolo[3,4-d]pyrimidin-1-yl)piperidin-1-yl)-2-(methylsulfonyl)pyrimidine-5-carboxylate] | 90 | 90 | 100 | 100 | 95 | 95 | 93 | 93 | 82 | 82 | 100 | 100 | < 1 | 49 | 49 | 56 | 56 | 77 | 77 | 80 | remaining binding at 1 µM (EGFR(S752-I759del); @1000nM, read-out: %Control): 82%; remaining binding at 1 µM (EGFR(S752-I759del); read-out: %Control @1000nM): 82%; difference in %Control versus compound Ib at 1 µM (FER; @1000nM): -10%; difference in %Control versus compound Ib at 1 µM (FES; @1000nM): 0%; difference in %Control versus compound Ib at 1 µM (FGFR3; @1000nM): 47%; difference in %Control versus compound Ib at 1 µM (FGR; @1000nM): 20.7%; remaining binding at 1 µM (FGR; @1000nM, read-out: %Control): 26%; remaining binding at 1 µM (FGR; read-out: %Control @1000nM): 26%; % difference (compound - Ib %Control) (FLT3(ITD,D835V)): 16%; difference in %Control vs compound Ib at 1 µM (FLT3-autoinhibited; @1000nM): -7%; remaining binding at 1 µM (FLT3-autoinhibited; @1000nM, read-out: %Control): 90%; remaining binding at 1 µM (FLT3-autoinhibited; read-out: %Control @1000nM): 90%; difference in %Control vs compound Ib at 1 µM ([1]; @1000nM): -18%; difference in %Control from compound Ib at 1 µM ([2]; @1000nM): 94.5%
3 | CNC(=O)c1cnc(S(C)(=O)=O)nc1N1CCCC(n2nc(-c3ccc(Oc4ccccc4)cc3)c3c(N)ncnc32)C1 (centres unmarked) [Compound 8d, 4-(3-(4-Amino-3-(4-phenoxyphenyl)-1H-pyrazolo[3,4-d]pyrimidin-1-yl)piperidin-1-yl)-N-methyl-2-(methylsulfonyl)pyrimidine-5-carboxamide] | 100 | 100 | 100 | 100 | 99 | 99 | 70 | 70 | 86 | 86 | 73 | 73 | 27 | 43 | 43 | 31 | 31 | 69 | 69 | 67 | remaining binding at 1 µM (EGFR(S752-I759del); @1000nM, read-out: %Control): 69%; remaining binding at 1 µM (EGFR(S752-I759del); read-out: %Control @1000nM): 69%; difference in %Control versus compound Ib at 1 µM (FER; @1000nM): 0%; difference in %Control versus compound Ib at 1 µM (FES; @1000nM): 0%; difference in %Control versus compound Ib at 1 µM (FGFR3; @1000nM): 51%; difference in %Control versus compound Ib at 1 µM (FGR; @1000nM): 10.7%; remaining binding at 1 µM (FGR; @1000nM, read-out: %Control): 16%; remaining binding at 1 µM (FGR; read-out: %Control @1000nM): 16%; % difference (compound - Ib %Control) (FLT3(ITD,D835V)): -7%; difference in %Control vs compound Ib at 1 µM (FLT3-autoinhibited; @1000nM): 3%; remaining binding at 1 µM (FLT3-autoinhibited; @1000nM, read-out: %Control): 100%; remaining binding at 1 µM (FLT3-autoinhibited; read-out: %Control @1000nM): 100%; difference in %Control vs compound Ib at 1 µM ([1]; @1000nM): -14%; difference in %Control from compound Ib at 1 µM ([2]; @1000nM): 67.5%
